Source: article PMC8291587, “Guanidine Derivatives: How Simple Structural Modification of Histamine H3R Antagonists Has Led to the Discovery of Potent Muscarinic M2R/M4R Antagonists” (ACS Chemical Neuroscience, 2021)

Legend:
M2R/M3R = experiment: Ex vivo screening of muscarinic M2R/M3R antagonists on isolated guinea pig ileum (methacholine-induced contraction); settings: methacholine as agonist
Procedure: Another group of guinea pig intestinal receptors able to regulate smooth muscle contraction is that of the muscarinic receptors, including M2R and M3R. All compounds were tested on the muscarinic receptors using the same animal model. This approach is similar to measuring histamine H1R antagonist activity. Methacholine was used as a receptor agonist, while 1,1-dimethyl-4-diphenylacetoxypiperidinium iodide (4-DAMP) was used as a reference M3R antagonist. As methacholine is not selective according to M2R and M3R, it is not possible to precisely specify which one was responsible for the effect observed on the tissue preparations. Some authors often attribute the results to the minor M3R subtype (gpM2R:M3R = 4:1 or 5:1), which is generally associated with the contractions,[38] but such an overinterpretation may be misleading, as indicated by our further hM1R-hM5R radioligand binding assay results shown in Table 2. […] These findings partially explain the influence of ADS10227 on the contractility of guinea pig ileum following electrical stimulation. […] In subsequent studies, we tried to clarify this.
Male guinea pigs, weighing 300–400 g, were euthanized by a blow to the neck. A 20–30 cm length of the distal ileum, apart from the terminal 5 cm, was rapidly removed and placed in phosphate buffer at room temperature (pH 7.4) containing (mM) NaCl (136.9), KCl (2.6), KH2PO4 (1.47), Na2HPO4 (9.58), and indomethacin (1 × 10^–6 mol/L)). The intraluminal content was rinsed, and the isolated intestine was cut into 1.5–2 cm segments. The preparations were mounted isotonically in a 20 mL organ bath filled with Tyrode’s buffer: composition (mM) NaCl (137), KCl (2.7), MgCl2·6H2O (1.0), CaCl2 (1.8), NaH2PO4·H2O (0.4), NaHCO3 (11.9), glucose (5.61), and indomethacin (3 × 10^–7 mol/L). The solution was continuously bubbled with a 95% O2:5% CO2 mixture and maintained at 37 °C under a constant load of 0.5 g (Hugo Sachs Hebel–Messvorsatz (Tl-2)/HF-modem; Hugo Sachs Elektronik, Hugstetten, Germany) connected to a pen recorder (Kipp & Zonen BD41, Delft, Holland). During an equilibration period of 40 min, Tyrode’s buffer was changed every 10 min. The first cumulative concentration–response curve was determined for methacholine (10 nM to 3 mM) at increasing concentrations spaced by 3- or 3.3-fold. The second to the fourth (or fifth) curves were measured in the presence of an increasing concentration of antagonist (incubation time 20 min). The pA2 values were calculated according to Arunlakshana and Schild.[37] Statistical analysis was carried out with the Students’ t test. In all tests, a p < 0.05 was considered statistically significant.

hH3R = molecular target: T1, hH3R (Homo sapiens, UniProt Q9Y5N1); experiment: hH3R radioligand displacement binding assay ([3H]-Nα-methylhistamine, HEK-293 cell membranes); settings: for Ki: [3H]-Nα-methylhistamine, HEK-293 membranes, read-out: hH3R -log(Ki) ± sem (converted)
T1 construct: expressed in transfected cells; membrane fractions
T1 sequence (Q9Y5N1 whole entry): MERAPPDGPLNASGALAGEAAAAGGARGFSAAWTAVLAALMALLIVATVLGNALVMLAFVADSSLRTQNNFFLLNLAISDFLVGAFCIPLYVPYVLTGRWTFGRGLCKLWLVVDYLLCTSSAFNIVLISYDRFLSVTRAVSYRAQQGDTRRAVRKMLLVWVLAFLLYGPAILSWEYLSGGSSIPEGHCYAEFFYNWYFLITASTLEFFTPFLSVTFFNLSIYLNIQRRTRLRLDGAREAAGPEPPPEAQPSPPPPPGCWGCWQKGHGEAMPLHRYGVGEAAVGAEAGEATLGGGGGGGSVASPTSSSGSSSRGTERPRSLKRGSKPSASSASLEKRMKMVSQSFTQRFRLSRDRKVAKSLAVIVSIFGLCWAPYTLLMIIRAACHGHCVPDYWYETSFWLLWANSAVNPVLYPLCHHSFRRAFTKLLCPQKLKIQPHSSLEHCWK
Procedure: [^3H]-N^α-Methylhistamine was used as a radiolabeled ligand.
The radioligand displacement binding assay was performed in membrane fractions of HEK-293 cells stably expressing hH3R. Cell cultivation and membrane preparation were performed according to Kottke et al.[43] […] The total assay volume was set to 200 μL. The compounds were tested in several appropriate concentrations between 100 μM and 0.1 nM. Pipetting was partly done by Freedom Evo (Tecan). […] The membrane fraction (20 μg/well), test compounds, and radiolabeled ligand were incubated for 90 min at 25 °C while shaking. The bound radioligand was separated from free radioligand by filtration through GF/B filters pretreated with 0.3% (m/v) polyethylenimine using a cell harvester. Radioactivity was determined by liquid scintillation counting using a MicroBeta Trilux (PerkinElmer). The data were obtained in duplicates in at least three independent experiments. Nonspecific binding was subtracted from the raw data to calculate specific-binding values. The evaluation was performed with GraphPad Prism 6.1 (San Diego, CA, USA) using nonlinear regression (one-site competition with a logarithmic scale). The Ki values were calculated from the IC50 values using the Cheng–Prusoff equation.[44] The statistical calculations were performed on −log Ki. The mean values and 95% confidence intervals were transformed to nanomolar concentrations.

M2R = test system: M2R; design: method as in PMID 11421251; settings: cited from earlier work
H1R [1] = molecular target: T2, H1R (Cavia porcellus, UniProt P31389); experiment: Ex vivo screening of histamine H1R antagonists on guinea pig ileum, variant without atropine; settings: isolated guinea pig ileum, histamine as agonist, read-out: H1R pA2 gpi ± sem (converted)
T2 construct: from tissue; host or cells: isolated distal ileum of male guinea pigs
T2 sequence (P31389 whole entry): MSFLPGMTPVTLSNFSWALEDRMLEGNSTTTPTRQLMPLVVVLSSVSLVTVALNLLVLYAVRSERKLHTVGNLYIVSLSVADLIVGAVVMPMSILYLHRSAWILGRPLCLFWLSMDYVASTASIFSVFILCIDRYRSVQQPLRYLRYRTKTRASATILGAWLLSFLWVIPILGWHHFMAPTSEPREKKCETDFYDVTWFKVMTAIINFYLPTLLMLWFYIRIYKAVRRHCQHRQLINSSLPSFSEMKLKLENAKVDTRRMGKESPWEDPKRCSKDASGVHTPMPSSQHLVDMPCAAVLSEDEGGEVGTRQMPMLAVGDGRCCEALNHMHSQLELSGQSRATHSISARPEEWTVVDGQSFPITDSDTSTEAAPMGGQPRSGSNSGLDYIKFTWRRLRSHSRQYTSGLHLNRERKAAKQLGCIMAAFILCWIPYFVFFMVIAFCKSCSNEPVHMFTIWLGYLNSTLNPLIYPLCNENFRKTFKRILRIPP
Procedure: (§1) The second histamine receptor located in the guinea pig ileum is H1R. […] The H1R antagonistic effect was measured on isolated guinea pig ileum stimulated to contract by histamine.[37] To assess and exclude the influence of the ADS compounds on muscarinic receptors, two test variations were used: one with the addition of 0.05 μM atropine and one without.
(§2) Male guinea pigs, weighing 300–400 g, were euthanized by a blow to the neck. A 20–30 cm length of the distal ileum, apart from the terminal 5 cm, was rapidly removed and placed in phosphate buffer at room temperature (pH 7.4) containing (mM) NaCl (136.9), KCl (2.6), KH2PO4 (1.47), Na2HPO4 (9.58), and indomethacin (1 × 10^–6 mol/L). The intraluminal content was rinsed, and the isolated intestine was cut into 1.5–2 cm segments. The preparations were mounted isotonically in a 20 mL organ bath filled with Krebs buffer: composition (mM) NaCl (118), KCl (5.6), MgSO4 (1.18), CaCl2 (2.5), NaH2PO4·H2O (1.28), NaHCO3 (25), glucose (5.55), and indomethacin (3 × 10^–7 mol/L). […] The solution was continuously bubbled with a 95% O2:5% CO2 mixture and maintained at 37 °C under a constant load of 0.5 g (Hugo Sachs Hebel–Messvorsatz (Tl-2)/HF-modem; Hugo Sachs Elektronik, Hugstetten, Germany) connected to a pen recorder (Kipp & Zonen BD41, Delft, Holland). During an equilibration period of 40 min, Krebs buffer was changed every 10 min. The first cumulative concentration–response curve was determined for histamine (10 nM to 10 mM) at increasing concentrations spaced by 3- or 3.3-fold. The second to the fourth (or fifth) curves were measured in the presence of an increasing concentrations of antagonist (incubation time 10 min). The pA2 values were calculated according to Arunlakshana and Schild.[37] Statistical analysis was carried out with the Students’ t test. In all tests, a p < 0.05 was considered statistically significant.

[2] = test system: electrically stimulated guinea pig ileum; experiment: Decrease of contractility in electrically stimulated guinea pig ileum (-log EC50 determination); settings: electrically stimulated guinea pig ileum; for EC50: Cavia porcellus, read-out: Decrease of contractility (-logEC50 ± sem) (converted)
Procedure: A standard ex vivo assay based on the relaxant response of histamine H3R agonists to electrically driven guinea pig ileum was used to test the influence of ADS compounds on the reduction of electrically evoked tissue contraction. […] The −log EC50 value for RAMH and ADS compounds were evaluated. […] Following this, we decided to evaluate the ADS series as potential M2R/M3R ligands on the isolated guinea pig ileum.
Male guinea pigs, weighing 300–400 g, were euthanized by a blow to the neck. A 20–30 cm length of the distal ileum, apart from the terminal 5 cm, was rapidly removed and placed in phosphate buffer at room temperature (pH 7.4) containing (mM) NaCl (136.9), KCl (2.6), KH2PO4 (1.47), Na2HPO4 (9.58), and indomethacin (1 × 10^–6 mol/L)). The intraluminal content was rinsed, and the isolated intestine was cut into 1.5–2 cm segments. The preparations were mounted between two platinum electrodes isotonically in a 20 mL organ bath filled with Krebs buffer: composition (mM) NaCl (118), KCl (5.6), MgSO4 (1.18), CaCl2 (2.5), NaH2PO4·H2O (1.28), NaHCO3 (25), glucose (5.55), and indomethacin (3 × 10^–7 mol/L). The solution was continuously bubbled with a 95% O2:5% CO2 mixture and maintained at 37 °C under a constant load of 1.0 g (Hugo Sachs Hebel–Messvorsatz (Tl-2)/HF-modem; Hugo Sachs Elektronik, Hugstetten, Germany) connected to a pen recorder (Kipp & Zonen BD41, Delft, Holland). During an equilibration period of 60 min, Krebs buffer was changed every 10 min. Following this, the preparations were continuously stimulated at 15–20 V, at a frequency of 0.1 Hz for a duration of 0.5 ms, with rectangular-wave electrical pulses (Grass Stimulator S-88; Grass Instruments Co., Quincy, Massachusetts, USA). […] Cumulative concentration–response curve was determined to RAMH or tested agonist (10 nM to 10 mM) at increasing concentrations spaced by 3- or 3.3-fold. The agonist potency is expressed as pD2 value (−log EC50) ± sem.

H1R [3] = molecular target: T2, H1R; experiment: Ex vivo screening of histamine H1R antagonists on guinea pig ileum, variant with 0.05 μM atropine; settings: isolated guinea pig ileum, histamine as agonist, read-out: H1R+atropine pA2 gpi ± sem (converted)
Procedure: as §1, §2

| SMILES | M2R/M3R pA2 gpi ± sem (M2R/M3R) | Kd (hH3R; radioligand used at 2 nM) [nM] | effective dose in the rodent cognition model lower than that known to increase heart rate in rats (M2R) [fold] | Ki (hH3R) [nM] | Kb (H1R [1]) [nM] | EC50 [2] [nM] | Kb (H1R [3]) [nM] | Decrease of contractility (-logEC50 ± sem) [2] | intrinsic activity (maximal response as fraction of maximal response of the system) ([2]; from concentration–response curves) |
| --- | --- | --- | --- | --- | --- | --- | --- | --- | --- |
| C[N+]1(C)CCC(OC(=O)C(c2ccccc2)c2ccccc2)CC1.[I-] [4-DAMP, 1,1-dimethyl-4-diphenylacetoxypiperidinium iodide, reference compound] | 9.05 ±0.11 | – | – | – | – | – | – | – | – |
| CNCCc1cnc[nH]1 [[^3H]N^α-methylhistamine, reference compound] | – | 3.08 | – | – | – | – | – | – | – |
| COc1ccc(S(=O)(=O)c2ccc(C3(C4CCN(C5CCN(C(=O)c6cccc(C)c6N)CC5)CC4)OCCO3)cc2)cc1 [SCH-217443] | – | – | 30 | – | – | – | – | – | – |
| N=C(N)N(CCCCN1CCN(Cc2ccc(COc3ccccc3)cc2)CC1)Cc1ccccc1 [ADS10185] | 5.77±0.15 | – | – | 1350 | 105 | 3090 | 100 | – | – |
| N=C(N)N(CCCCN1CCN(Cc2ccc(COc3ccccc3)cc2)CC1)Cc1ccc(C(F)(F)F)cc1 [ADS10183] | 5.83±0.22 | – | – | 1660 | 182 | 2290 | 151 | – | – |
| N=C(N)N(CCCCN1CCN(C[C@H]2CC[C@H](COc3ccccc3)CC2)CC1)Cc1ccccc1 [ADS10283] | 6.02±0.07 | – | – | 2040 | 145 | 832 | 166 | – | – |
| N=C(N)N(CCCCN1CCN(Cc2ccc(Oc3ccccc3)cc2)CC1)Cc1ccc(C(F)(F)F)cc1 [ADS10210] | 5.83±0.14 | – | – | 1660 | 60.3 | 575 | 97.7 | – | – |
| [H]/N=C(\N)N(CCCCN1CCN(CC2CCC(COc3ccccc3)CC2)CC1)Cc1ccc(C(F)(F)F)cc1 (stereo not drawn) [ADS10207] | 5.68±0.15 | – | – | 1620 | 75.9 | 724 | 120 | – | – |
| C[C@@H](N)Cc1c[nH]cn1 [RAMH, (R)(−)-α-methylhistamine, reference compound] | – | – | – | – | – | – | – | 7.70±0.07 | 0.82 |
